Measurements as given in paper PMC9436915, “Tetrahedral framework nucleic acids‐based delivery promotes intracellular transfer of healing peptides and accelerates diabetic would healing” (Cell Proliferation, 2022).
Where a SMILES comes first, the peptide text is derived from it.

What was measured:
[1] = test system: HUVEC; experiment: Tube formation assay on Matrigel; type: cell-based; settings: inhibitor+p@tFNA group; n = 3
Method: (§1) HUVECs under diabetic microenvironment were induced by incubation with 200 μg/ml AGEs (Bioss, Beijing, China) for 24 h. Cells were then treated with peptides or p@FNA (125 nM) for subsequent experiments.
The formation of blood vessel‐like structures in vitro was observed by tube formation assay. Cells were pre‐incubated with AGEs for 24 h and subsequently treated with peptide or p@FNA for another 24 h. Subsequently, 100 μl of HUVEC (1–1.5 × 10^5 cells/ml) were seeded on Matrigel (Corning, NY) in 96‐well plates. Images were taken after 6 h. Statistical analysis of tube formation was performed by Image J.

[2] = test system: p-ERK1/2; experiment: Western blotting, ERK1/2 phosphorylation; type: cell-based; settings: inhibitor plus p@tFNA treatment, n = 3
Method: as §1
(§2) The expression of β‐actin, VEGFA, MMP‐9, ERK1/2 and p‐ERK1/2 was detected by western blotting. The total protein of the sample was extracted by whole cell lysis method. The target protein was separated by 10% SDS‐PAGE and transferred to PVDF membrane. The bands were blocked in 5% BSA for 1 h and then incubated with primary antibodies against β‐actin (1:5000, PMK058S, BioPM, Wuhan, China), VEGFA (ab214424, Abcam, Cambridge, UK), MMP‐9 (ab76003, Abcam, Cambridge, UK), ERK1/2 (1:1000, CST, #4370, MA) and p‐ERK1/2 (1:2000, CST, #4370, MA) overnight at 4°C. The next day, PVDF membranes were rewarmed and incubated with secondary antibodies for 1 h. Bands were washed three times with TBST. The final exposure was performed in a Bio‐Rad chemiluminometry.

[3] = test system: VEGFA; experiment: Western blotting, VEGFA protein; type: cell-based; settings: inhibitor plus p@tFNA treatment, n = 3
Method: as §1, §2

[4] = test system: trypsin; experiment: Enzyme stability of peptide with trypsin; type: in vitro ADME; settings: 37 °C, during 1.5 h, UV 205 nm
Method: As to the enzyme stability of peptide, equal amount of peptide and p@FNA were treated with trypsin and incubated in 37 °C for 1.5, 3, and 6 h. The remaining amount of peptide was measured by UV spectrophotometer (205 nm). As to enzyme stability of tFNA, equal amount of tFNA and p@FNA were treated with DNase I for 1 min. After neutralization, samples were examined by 6%PAGE at 60 V for 80 min.

| Compound | Tube formation after ERK1/2 inhibition: branching intervals [1] | Tube formation after ERK1/2 inhibition: branching length [1] | Tube formation after ERK1/2 inhibition: junctions [1] | Tube formation after ERK1/2 inhibition: meshes [1] | Tube formation after ERK1/2 inhibition: nodes [1] | Tube formation after ERK1/2 inhibition: total length [1] | Tube formation after ERK1/2 inhibition: total mesh area [1] | p-ERK1/2 expression after ERK1/2 inhibitor [2] | VEGFA expression after ERK1/2 inhibitor [3] | Stability to trypsin (in words) [4] |
| --- | --- | --- | --- | --- | --- | --- | --- | --- | --- | --- |
| Cn1nccc1Nc1nccc(-c2cc3c(s2)C(C)(C)N(CCN2CCOCC2)C3=O)n1 [LY3214996] | 0.49 fold | 0.25 fold | 0.19 fold | 0.13 fold | 0.20 fold | 0.35 fold | 0.02 fold | 0.69 fold | 0.59 fold | – |
| C[C@@H](O)[C@H](NC(=O)[C@H](CCCNC(=N)N)NC(=O)CNC(=O)[C@H](CCC(=O)O)NC(=O)[C@@H](N)CCCNC(=N)N)C(=O)O [peptide] (H-REGRT-OH) | – | – | – | – | – | – | – | – | – | rapid decomposition |
